Reference: article PMC8667935, “Synthesis and biological evaluation of celastrol derivatives as potent antitumor agents with STAT3 inhibition” (Journal of Enzyme Inhibition and Medicinal Chemistry, 2021)

Key:
STAT3 [1] = biological target: T1, STAT3 (Homo sapiens, UniProt P40763); test: SPR (Biacore T200, STAT3 amine-coupled to CM5 chip); type: binding
T1 construct: recombinant human STAT3 protein (rhSTAT3)

STAT3 [2] = biological target: T1, STAT3; test: SPR (Biacore T200, STAT3 amine-coupled to CM5 chip); positive control measured by the authors; type: binding

T1 sequence (P40763 2-770): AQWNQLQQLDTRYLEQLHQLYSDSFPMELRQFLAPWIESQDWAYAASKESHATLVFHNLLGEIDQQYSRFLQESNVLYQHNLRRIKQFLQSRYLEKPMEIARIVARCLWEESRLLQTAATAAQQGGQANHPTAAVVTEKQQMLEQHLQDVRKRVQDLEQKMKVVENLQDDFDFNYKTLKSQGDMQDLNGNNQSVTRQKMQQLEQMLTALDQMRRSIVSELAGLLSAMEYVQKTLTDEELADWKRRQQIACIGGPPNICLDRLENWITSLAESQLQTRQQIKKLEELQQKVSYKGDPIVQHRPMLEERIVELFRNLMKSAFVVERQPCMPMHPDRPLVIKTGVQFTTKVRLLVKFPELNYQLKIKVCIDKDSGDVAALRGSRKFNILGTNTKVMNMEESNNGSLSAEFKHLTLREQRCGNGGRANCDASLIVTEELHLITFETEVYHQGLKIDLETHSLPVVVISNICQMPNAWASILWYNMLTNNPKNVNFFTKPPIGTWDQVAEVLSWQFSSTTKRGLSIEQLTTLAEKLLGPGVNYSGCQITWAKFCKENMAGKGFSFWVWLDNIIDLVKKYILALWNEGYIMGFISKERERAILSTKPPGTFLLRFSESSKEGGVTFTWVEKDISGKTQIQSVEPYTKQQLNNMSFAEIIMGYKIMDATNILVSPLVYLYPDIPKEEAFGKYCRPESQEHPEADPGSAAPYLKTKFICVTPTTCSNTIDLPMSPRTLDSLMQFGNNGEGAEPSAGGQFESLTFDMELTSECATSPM

Kd (STAT3 [1]) [µM]	Structure (SMILES)	Kd (STAT3 [2]) [µM]
45.3	CC1=C(O)C(=O)C=C2C1=CC=C1[C@@]2(C)CC[C@@]2(C)[C@@H]3C[C@](C)(C(=O)NCCc4cccs4)CC[C@]3(C)CC[C@]12C [4m, 3-Hydroxy-9β,13α-dimethyl-2-oxo-24,25,26-trinoroleana-1(10),3,5,7-tetraen-29-oic acid 2–(2-thienyl) ethylamide]	
	CC1=C(O)C(=O)C=C2C1=CC=C1[C@@]2(C)CC[C@@]2(C)[C@@H]3C[C@](C)(C(=O)O)CC[C@]3(C)CC[C@]12C [CEL, Celastrol]	60.4
